Source: publication PMC12583094, “A novel antioxidant peptide from black soybean [Glycine max (L.) Merr.] with verified MPO interaction and multi-scale antioxidant activity” (Frontiers in Nutrition, 2025)
Where two headings read alike, the source gives them in different places. No end group written: not given here.

Key:
[1] = cited from earlier work; for antioxidant activity and free radical scavenging: peptides from black soybean processing by-products; for antioxidant bioactivity: peptides from sturgeon ovarian protein hydrolysates; for radical scavenging activity: peptides from Thunnus albacares protein hydrolysates
Excerpt: Black soybean [Glycine max (L.) Merr.], belonging to the family Fabaceae, subfamily Faboideae, genus Glycine, and subgenus Soja, is a traditional legume crop characterized by its black seed coat. It has been cultivated in China for thousands of years, and China remains the largest producer and consumer of soybeans globally, with substantial production and consumption of black soybean in particular ([8]).

[2] = peptide from cherry seeds, molecular dynamics simulation; cited from earlier work
Excerpt: The root mean square deviation (RMSD) value reflects the deviation of the complex from its initial conformation over the course of the simulation. RMSD fluctuations are directly indicative of conformational stability, with deviations below 0.5 nm generally considered acceptable ([34]). […] In this surface, blue to white regions indicate low free energy value, whereas yellow to red regions reflect higher energy states. […] For the MPO–[…] complex, the energy p ...

[3] = peptide from cherry seeds; cited from earlier work
[4] = ABTS radical scavenging assay; type: biochemical; conditions: ABTS solution diluted 20-fold with anhydrous ethanol, 30 min dark, 734 nm, mean ± SD, n = 3
Description: For the ABTS assay, ABTS radical solution was prepared by mixing Reagent A and Reagent B (from the assay kit) at a 1:1 volume ratio, followed by incubation in the dark for 12 h. The resulting ABTS solution was diluted 20-fold with anhydrous ethanol before use. The blank, control, and sample solutions were prepared in the same manner as in the DPPH assay, followed by 30 min of dark incubation. Absorbance was measured at 734 nm. The radical scavenging activity was calculated using the formula reported by Thanyaporn Aursuwanna et al. ([22]).

[5] = DPPH radical scavenging assay; type: biochemical; conditions: 50 μL + 450 μL of 0.1 mM DPPH in anhydrous ethanol, dark, room temperature, 30 min, 517 nm, mean ± SD, n = 3
Description: Prior to the assay, the microplate reader was preheated for 1 h. The peptide samples were dissolved in sterile water to prepare a concentration gradient of 0.1, 1, 5, and 10 mg/mL. For the DPPH assay, 50 μL of sterile water and 450 μL of DPPH solution (0.1 mM in anhydrous ethanol) were added to the blank tube. For the control tube, 50 μL of peptide solution and 450 μL of anhydrous ethanol were mixed. For the sample tubes, 50 μL of peptide solution and 450 μL of DPPH solution were combined. All mixtures were incubated in the dark at room temperature for 30 min. Absorbance was measured at 517 nm using a UV–visible spectrophotometer.

MPO = conditions: cited from earlier work
Excerpt: (§1) Similarly, Zhang et al. identified two antioxidant peptides, VVFVDRL and […], from Glycine max hydrolysate, both of which contain N-terminal valine residues. […] This enhanced activity was attributed to the presence of repeating amino acids within the peptide sequences, a feature that has also been associated with stronger bioactivity in antioxidant peptid ...

[6] = cited from earlier work; for ABTS radical scavenging rate at 1 mg/mL / DPPH radical scavenging rate at 1 mg/mL: peptide from Glycine max hydrolysate
Excerpt: as §1

HaCaT cells [7] = assay: CCK8 cell viability, concentration screening in HaCaT cells; type: cell-based, human; conditions: 24 h, CCK8, 450 nm, vs control, n = 3
Description: (§2) HaCaT cell recovery, culture, and subculture were performed with reference to the method described by Yusha Zi et al., with some modifications ([23]). For recovery, cryopreserved HaCaT cells were retrieved from liquid nitrogen storage and quickly thawed in a 37 °C water bath with gentle shaking. Just before complete thawing, the tube was removed from the water bath, and the cell suspension was immediately transferred into a 15 mL centrifuge tube containing 9 mL of pre-warmed complete medium. The complete medium consisted of DMEM supplemented with 10% fetal bovine serum (FBS) and 1% penicillin–streptomycin (P/S). Cells were centrifuged at 800 rpm for 5 min at 4 °C. After discarding the supernatant, the cell pellet was resuspended in 5 mL of fresh complete medium and transferred to a culture flask equipped with a ventilated cap. Cells were incubated in a humidified incubator at 37 °C with 5% CO₂ and 95% humidity.
For subculturing, when cell confluence reached approximately 80%, the medium was discarded, and the cells were gently rinsed three times with 2 mL of PBS. Then, 1 mL of 0.25% trypsin solution was added, and the flask was incubated at 37 °C for about 1 min. Once the cells became round and partially detached (as observed under a microscope), 3 mL of complete medium was added to terminate the digestion. The cell suspension was gently pipetted to disperse the cells and transferred to a 15 mL centrifuge tube. After centrifugation at 800 rpm for 5 min at 4 °C, the supernatant was discarded. The pellet was resuspended in fresh medium and seeded into new culture flasks at a ratio of 1:3, followed by incubation under the same culture conditions.
After digestion and resuspension, HaCaT cells were seeded into a 96-well plate at a concentration of 1 × 10^^4 cells/ml, with 100 μL of complete culture medium added to each well. Three wells with no cells were treated with an equal volume of complete culture medium as the blank group. The cells were incubated for 24 h to allow attachment. For the experiment, the control and blank groups were replaced with an equal volume of fresh medium, while the treatment groups were treated with a concentration gradient of 100, 200, 500, 1,000, and 1,500 μg/mL H2O2 and peptide samples. The H2O2 group was incubated for 1 h, while the peptide sample group was incubated for 24 h. After incubation, the original medium was discarded, and 100 μL of CCK8 working solution (prepared from 90% DMEM + 10% CCK8 reagent) was added to each well. The blank group, which contained no cells, was used as the reference. The plate was incubated for an appropriate period, and the absorbance at 450 nm was measured using a microplate reader. Cell viability was calculated using the following formula:
Cell viability(%)=100%×(ODsample−ODblank)/(ODcontrol−ODblank).

HaCaT cells [8] = type: cell-based, human; conditions: 24 h, 1000 μg/mL
Description: as §2, with “humidity. For subculturing, when cell confluence reached approximately 80%, the medium was discarded, and the cells were gently rinsed three times with 2 mL of PBS. […] The plate was incubated for an appropriate period, and the absorbance at 450 nm was measured using a microplate reader. Cell viability was calculated using the following formula: Cell viability(%)=100%×(ODsample−ODblank)/(ODcontrol−ODblank). […] The absorbance was measured and cell viability was calculated under the same conditions.” for “humidity.”

[9] = peptide from foxtail millet prolamin

LVPK [peptide from black soybean processing by-products]
antioxidant activity and free radical scavenging [1]: exhibited antioxidant activity and free radical scavenging capacity

LYSPH [antioxidant peptide LYSPH, derived from cherry seeds]
number of hydrogen bonds [2]: 3 ± 1 hydrogen bonds
docking binding energy [3]: -7.9 kcal/mol

FEGPPFKF [antioxidant peptide from sturgeon ovarian protein hydrolysates]
antioxidant bioactivity [1]: demonstrated antioxidant bioactivity

ACGSDGK [antioxidant peptide from Thunnus albacares protein hydrolysates]
radical scavenging activity [1]: significant radical scavenging activity

IVPK [peptide from black soybean processing by-products]
antioxidant activity and free radical scavenging [1]: exhibited antioxidant activity and free radical scavenging capacity

FDWDRL [antioxidant peptide from sturgeon ovarian protein hydrolysates]
antioxidant bioactivity [1]: demonstrated antioxidant bioactivity

Glutathione [GSH]
ABTS radical scavenging rate at 0.1 mg/mL ([4]; 0.1 mg/mL): 24.52 ± 4.01%
ABTS radical scavenging rate at 1 mg/mL ([4]; 1 mg/mL): 40.76 ± 3.01%
ABTS radical scavenging rate at 5 mg/mL ([4]; 5 mg/mL): 60.28 ± 3.58%
ABTS radical scavenging rate at 10 mg/mL ([4]; 10 mg/mL): 82.92 ± 1.27%
DPPH radical scavenging rate at 0.1 mg/mL ([5]; 0.1 mg/mL peptide solution): 27.72 ± 2.86%
DPPH radical scavenging rate at 1 mg/mL ([5]; 1 mg/mL peptide solution): 54.36 ± 3.61%
DPPH radical scavenging rate at 5 mg/mL ([5]; 5 mg/mL peptide solution): 69.01 ± 4.68%
DPPH radical scavenging rate at 10 mg/mL ([5]; 10 mg/mL peptide solution): 84.87 ± 1.39%

KFCSGHA [antioxidant peptide from Thunnus albacares protein hydrolysates]
radical scavenging activity [1]: significant radical scavenging activity

VLIPMP [antioxidant peptide from foxtail millet prolamin]
number of hydrogen bonds formed with MPO (MPO): higher than that observed for VPNHFNAP
stability of the VLIPMP–MPO complex (MPO; molecular dynamics simulations): confirmed the stability of the VLIPMP–MPO complex
binding free energy calculated by MM-PBSA (MPO; with MPO): -40.83 ± 7.64 kcal/mol
ABTS IC₅₀ [6, 9]: 2.33 mg/mL
DPPH IC₅₀ [6, 9]: 4.45 mg/mL

VIYVVDLR [antioxidant peptide from Glycine max hydrolysate]
ABTS radical scavenging rate at 1 mg/mL [6]: ~50%
DPPH radical scavenging rate at 1 mg/mL [6]: approximately 40%

VPNHFNAP
effect on HaCaT cell viability, 1500 μg/mL (HaCaT cells [7]; peptide 1500 μg/mL): a marked decrease
effect on HaCaT cell viability, 100 to 1,000 μg/mL (HaCaT cells [7]; peptide 100 to 1,000 μg/mL): did not cause significant changes in cell viability
HaCaT cell viability, peptide pretreatment then H2O2 (HaCaT cells [8]): 64.38 ± 4.22%

VVFVDRL [antioxidant peptide from Glycine max hydrolysate]
ABTS radical scavenging rate at 1 mg/mL [6]: ~50%
DPPH radical scavenging rate at 1 mg/mL [6]: approximately 40%
